Data: US8455639B2, “Crystalline form of an organic compound” (Sandoz AG, priority 2008, dated 2013)

Tests used:
[1] = Hygroscopicity: water uptake on stepwise increase/decrease of relative humidity; format: physicochemical; conditions: for water uptake: value at end of the one hour storage period
Procedure: In these experiments humidity was increased/decreased stepwise. Starting at 0% relative humidity every one hour the humidity level was increased by 10% relative humidity. The gain/loss of weight was recorded continuously. The values given represent the value at the end of the one hour storage period at the indicated relative humidity level.
This water is easily lost, e.g. by storage at a relative humidity of 60% or less.

[2] = Storage stability at ambient temperature, measured by HPLC (stability and purity test); format: physicochemical; conditions: samples stored for 4 months at ambient temperature
Procedure: Stability and Purity Test:
Apparatus: Agilent 11 Series • Column: YMC-Pro C18; 150×4,6 mm, S-5 μm, 120A • Eluent: mobile phase A: 3.884 g of amidosulfonic acid in 1000 g of water; mobile phase B: 3.884 g of amidosulfonic acid in 250 g of water and 588 g of acetonitrile.
Measurement at a wavelength of 220 nm; injection volume 7 μl, oven temperature 40° C., Flow 1.0 ml/min
Sample preparation: approximately 10 mg of a sample of the crystalline form of alogliptin free base are dissolved in 10 ml of acetonitrile and the solution is filled up to 25 ml with water
Run time 20 min • Gradient: […]

hygroscopicity ([1]; in words): low hygroscopicity
water uptake ([1]; stored at about 25° C. for 60 min at a relative humidity of 50%): about 0.4 % w/w
water uptake ([1]; stored at about 90% relative humidity at about 25° C. for 60 min): about 1.6 % w/w
degradation (chemical stability) [2]: no degradation
Structure (SMILES): Cn1c(=O)cc(N2CCC[C@@H](N)C2)n(Cc2ccccc2C#N)c1=O [2-[6-[3(R)-aminopiperidin-1-yl]-3-methyl-2,4-dioxo-1,2,3,4-tetrahydropyrimidin-1-ylmethyl]-benzonitrile]
change in crystal structure / formation of a hydrated form ([1]; exposed to extremely high relative humidity): No change in crystal structure nor the formation of a hydrated form
